Reference: ChEMBL document CHEMBL1129789, “Dopamine D3 and D4 receptor antagonists: synthesis and structure--activity relationships of (S)-(+)-N-(1-Benzyl-3-pyrrolidinyl)-5-chloro-4- [(cyclopropylcarbonyl) amino]-2-methoxybenzamide (YM-43611) and related compounds” (J Med Chem, 1996)

Experiments:
Histamine H1 receptor = Histamine H1 receptor (Rattus norvegicus, UniProt P31390); experiment: Compound was tested for the Binding affinity against rat cortical H1 receptor by Radio ligand [3H]pyrilamine binding assay
[1] = biological target: T1, Muscarinic acetylcholine receptor M1 (Rattus norvegicus, UniProt P08482); experiment: Compound was tested for the Binding affinity against rat cortical Muscarinic acetylcholine receptor M1 by Radio ligand [3H]pirenzepine binding assay
T1 sequence (P08482 whole entry): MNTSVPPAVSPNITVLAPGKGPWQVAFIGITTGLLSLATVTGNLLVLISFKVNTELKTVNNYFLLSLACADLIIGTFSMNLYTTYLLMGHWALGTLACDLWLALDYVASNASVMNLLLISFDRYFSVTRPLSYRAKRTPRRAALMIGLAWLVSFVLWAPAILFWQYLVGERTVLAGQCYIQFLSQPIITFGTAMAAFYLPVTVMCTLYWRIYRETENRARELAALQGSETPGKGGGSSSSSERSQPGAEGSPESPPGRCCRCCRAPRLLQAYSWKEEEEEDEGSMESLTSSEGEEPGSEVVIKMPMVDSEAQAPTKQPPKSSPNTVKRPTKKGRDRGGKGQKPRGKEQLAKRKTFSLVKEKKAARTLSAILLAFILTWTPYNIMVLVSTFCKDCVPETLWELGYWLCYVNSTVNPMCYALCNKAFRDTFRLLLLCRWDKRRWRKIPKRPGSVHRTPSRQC

[2] = biological target: 5-hydroxytryptamine receptor 2A (Rattus norvegicus, UniProt P14842); experiment: biochemical
D(3) dopamine receptor = D(3) dopamine receptor (Rattus norvegicus, UniProt P19020); experiment: biochemical
Description: Binding affinity to rat Dopamine receptor D3 expressed in CHO cells was determined using [125 I] iodosulpride as radioligand

D(1B) dopamine receptor = D(1B) dopamine receptor (Homo sapiens, UniProt P21918)
[3] = biological target: T2, Adrenergic receptor alpha-2 (Rattus norvegicus, UniProt P22086+P19328+P22909); experiment: Compound was tested for the Binding affinity against rat cortical Alpha-2 adrenergic receptor by Radio ligand ([3H]-Rx-821002) binding assay; format: protein assay
T2 sequence (P22086 whole entry): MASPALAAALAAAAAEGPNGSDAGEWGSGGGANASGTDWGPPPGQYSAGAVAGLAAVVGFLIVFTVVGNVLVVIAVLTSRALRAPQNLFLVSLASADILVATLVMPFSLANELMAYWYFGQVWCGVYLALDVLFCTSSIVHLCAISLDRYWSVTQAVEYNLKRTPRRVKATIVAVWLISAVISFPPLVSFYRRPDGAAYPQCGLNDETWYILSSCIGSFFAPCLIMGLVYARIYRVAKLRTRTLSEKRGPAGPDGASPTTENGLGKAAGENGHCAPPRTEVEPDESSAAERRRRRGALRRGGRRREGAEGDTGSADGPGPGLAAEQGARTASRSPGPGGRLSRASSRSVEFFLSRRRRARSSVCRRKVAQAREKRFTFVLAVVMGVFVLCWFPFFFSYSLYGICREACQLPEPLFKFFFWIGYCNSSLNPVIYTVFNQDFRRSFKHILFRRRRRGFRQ
T2 sequence (P19328 whole entry): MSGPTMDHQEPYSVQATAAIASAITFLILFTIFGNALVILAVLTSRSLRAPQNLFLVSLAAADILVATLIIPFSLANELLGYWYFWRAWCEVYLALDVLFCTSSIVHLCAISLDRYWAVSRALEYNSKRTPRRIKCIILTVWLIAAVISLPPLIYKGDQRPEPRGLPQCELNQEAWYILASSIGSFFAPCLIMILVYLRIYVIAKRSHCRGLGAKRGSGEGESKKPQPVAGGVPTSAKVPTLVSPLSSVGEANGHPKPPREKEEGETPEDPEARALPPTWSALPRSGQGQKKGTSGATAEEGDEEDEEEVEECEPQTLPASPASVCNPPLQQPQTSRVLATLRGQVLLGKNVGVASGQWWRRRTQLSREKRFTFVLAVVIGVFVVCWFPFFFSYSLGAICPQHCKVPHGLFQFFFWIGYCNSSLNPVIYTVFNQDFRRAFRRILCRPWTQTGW
T2 sequence (P22909 whole entry): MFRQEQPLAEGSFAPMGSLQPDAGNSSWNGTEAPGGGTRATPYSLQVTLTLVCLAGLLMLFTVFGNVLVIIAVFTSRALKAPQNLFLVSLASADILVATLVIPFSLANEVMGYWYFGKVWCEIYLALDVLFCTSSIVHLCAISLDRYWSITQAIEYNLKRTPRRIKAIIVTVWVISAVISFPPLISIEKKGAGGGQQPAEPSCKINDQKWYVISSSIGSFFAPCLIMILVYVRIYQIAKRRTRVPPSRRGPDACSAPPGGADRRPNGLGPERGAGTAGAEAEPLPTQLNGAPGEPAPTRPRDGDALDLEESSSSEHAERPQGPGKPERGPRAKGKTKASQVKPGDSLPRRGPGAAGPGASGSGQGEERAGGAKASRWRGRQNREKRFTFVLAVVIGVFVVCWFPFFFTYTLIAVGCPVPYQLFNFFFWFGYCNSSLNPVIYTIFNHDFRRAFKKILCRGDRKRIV

D(1A) dopamine receptor = D(1A) dopamine receptor (Homo sapiens, UniProt P21728); experiment: Compound was tested for the Binding affinity against Human cloned Dopamine receptor D1 by Radio ligand ([3H]SCH-23390) binding assay
D(4) dopamine receptor = biological target: T3, D(4) dopamine receptor (Homo sapiens, UniProt P21917); experiment: biochemical
T3 sequence (P21917 whole entry): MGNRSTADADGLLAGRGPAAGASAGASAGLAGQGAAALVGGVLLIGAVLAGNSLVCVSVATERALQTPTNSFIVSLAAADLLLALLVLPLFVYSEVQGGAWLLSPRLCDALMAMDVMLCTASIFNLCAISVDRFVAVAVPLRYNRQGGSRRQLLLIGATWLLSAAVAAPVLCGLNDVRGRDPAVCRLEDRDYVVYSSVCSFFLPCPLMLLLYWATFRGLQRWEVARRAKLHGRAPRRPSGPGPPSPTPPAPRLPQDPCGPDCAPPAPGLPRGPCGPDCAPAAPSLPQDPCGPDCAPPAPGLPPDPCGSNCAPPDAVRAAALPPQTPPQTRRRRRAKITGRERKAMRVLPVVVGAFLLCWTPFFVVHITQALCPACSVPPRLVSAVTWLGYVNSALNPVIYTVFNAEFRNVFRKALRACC

Chain of 5-hydroxytryptamine receptor 2A (P14842 whole entry): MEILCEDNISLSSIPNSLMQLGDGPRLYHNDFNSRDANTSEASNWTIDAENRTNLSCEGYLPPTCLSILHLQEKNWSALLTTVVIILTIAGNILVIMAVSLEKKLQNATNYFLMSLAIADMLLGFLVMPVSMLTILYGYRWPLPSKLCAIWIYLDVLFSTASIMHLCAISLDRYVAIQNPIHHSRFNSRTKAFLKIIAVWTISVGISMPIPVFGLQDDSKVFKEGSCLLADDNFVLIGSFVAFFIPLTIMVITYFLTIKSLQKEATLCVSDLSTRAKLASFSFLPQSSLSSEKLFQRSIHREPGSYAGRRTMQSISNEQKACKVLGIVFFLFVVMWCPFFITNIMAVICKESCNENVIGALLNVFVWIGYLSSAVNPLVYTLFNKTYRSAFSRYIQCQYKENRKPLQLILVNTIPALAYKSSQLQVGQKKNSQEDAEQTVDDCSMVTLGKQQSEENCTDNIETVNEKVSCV
Chain of D(1B) dopamine receptor (P21918 whole entry): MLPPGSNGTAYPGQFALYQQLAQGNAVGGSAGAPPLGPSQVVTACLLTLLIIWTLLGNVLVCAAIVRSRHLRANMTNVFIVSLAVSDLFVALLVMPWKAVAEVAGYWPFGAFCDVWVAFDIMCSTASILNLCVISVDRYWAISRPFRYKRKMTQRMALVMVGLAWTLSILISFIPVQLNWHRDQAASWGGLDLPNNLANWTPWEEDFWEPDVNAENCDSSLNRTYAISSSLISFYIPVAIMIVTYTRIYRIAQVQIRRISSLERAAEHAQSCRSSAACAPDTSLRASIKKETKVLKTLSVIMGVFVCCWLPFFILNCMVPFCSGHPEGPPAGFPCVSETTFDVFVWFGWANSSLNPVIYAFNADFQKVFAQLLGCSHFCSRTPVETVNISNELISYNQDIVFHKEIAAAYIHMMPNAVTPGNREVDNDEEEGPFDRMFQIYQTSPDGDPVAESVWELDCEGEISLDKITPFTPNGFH
Chain of D(1A) dopamine receptor (P21728 whole entry): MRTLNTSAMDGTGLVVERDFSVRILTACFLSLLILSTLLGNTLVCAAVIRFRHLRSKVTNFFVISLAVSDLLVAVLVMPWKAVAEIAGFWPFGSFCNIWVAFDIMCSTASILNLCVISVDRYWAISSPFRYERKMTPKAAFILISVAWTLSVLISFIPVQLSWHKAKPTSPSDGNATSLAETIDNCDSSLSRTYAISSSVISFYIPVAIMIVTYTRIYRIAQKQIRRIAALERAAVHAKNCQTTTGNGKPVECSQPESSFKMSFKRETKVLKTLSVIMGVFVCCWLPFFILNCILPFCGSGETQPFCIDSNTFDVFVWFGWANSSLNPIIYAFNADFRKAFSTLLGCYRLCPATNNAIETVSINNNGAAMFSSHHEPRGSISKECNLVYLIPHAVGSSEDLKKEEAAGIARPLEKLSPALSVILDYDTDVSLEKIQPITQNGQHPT
Chain of D(3) dopamine receptor (P19020 whole entry): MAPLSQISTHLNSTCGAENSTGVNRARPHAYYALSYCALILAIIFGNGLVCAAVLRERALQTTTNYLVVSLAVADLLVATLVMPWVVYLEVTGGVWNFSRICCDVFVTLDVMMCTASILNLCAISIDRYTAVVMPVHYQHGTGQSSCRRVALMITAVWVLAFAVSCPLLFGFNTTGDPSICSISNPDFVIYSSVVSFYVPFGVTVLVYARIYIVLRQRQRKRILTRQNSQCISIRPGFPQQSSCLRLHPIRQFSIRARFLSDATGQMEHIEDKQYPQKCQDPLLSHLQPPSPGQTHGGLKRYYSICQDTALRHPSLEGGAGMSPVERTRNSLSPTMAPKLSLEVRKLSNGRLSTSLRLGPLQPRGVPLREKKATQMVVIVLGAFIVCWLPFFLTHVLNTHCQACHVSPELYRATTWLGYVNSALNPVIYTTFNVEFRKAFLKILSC
Chain of Histamine H1 receptor (P31390 whole entry): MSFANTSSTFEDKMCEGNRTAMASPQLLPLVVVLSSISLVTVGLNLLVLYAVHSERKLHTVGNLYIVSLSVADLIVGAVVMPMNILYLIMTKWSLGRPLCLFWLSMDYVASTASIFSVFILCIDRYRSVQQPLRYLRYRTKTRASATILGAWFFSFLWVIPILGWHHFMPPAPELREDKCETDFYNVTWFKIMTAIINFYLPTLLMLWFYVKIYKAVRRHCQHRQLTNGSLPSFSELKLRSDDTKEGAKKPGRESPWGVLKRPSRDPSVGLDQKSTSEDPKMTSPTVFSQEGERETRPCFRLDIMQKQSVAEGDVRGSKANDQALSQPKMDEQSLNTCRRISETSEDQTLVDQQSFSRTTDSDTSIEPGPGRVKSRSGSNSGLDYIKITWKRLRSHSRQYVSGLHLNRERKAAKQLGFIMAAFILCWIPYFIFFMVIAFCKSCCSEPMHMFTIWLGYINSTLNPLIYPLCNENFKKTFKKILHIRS

`COc1cc(NC(=O)C2CC2)c(Cl)cc1C(=O)N[C@H]1CCN(Cc2ccccc2)C1` showed a Ki (Histamine H1 receptor) greater than 10 µM, a Ki [1] of 5.4 µM and a Ki [2] greater than 10 µM. For the same compound, the Ki (D(3) dopamine receptor) was 0.021 µM, the Ki (D(1B) dopamine receptor) was greater than 10 µM and the Ki [3] was 4.3 µM. The Ki (D(1A) dopamine receptor) was greater than 10 µM and the Ki (D(4) dopamine receptor) was 0.0021 µM.
